Measurements published in patent publication US20230233650A1, “NOVEL FATTY ACID MODIFIED UROCORTIN 2 DERIVATIVES AND THE USES THEREOF” (Novo Nordisk A/S, priority 2021, published 2023).
Numbered stars: 1 amine (or outer) side, 2 acyl side, 3 side chain; on linkers, the order of the positions; unused ones are H or OH. Side chains are listed from the residue outwards. Peptide text beside a SMILES is read from it. * marks the point of attachment. C20 diacid = O=C(O)CCCCCCCCCCCCCCCCCCC(=O)*; γGlu = O=C(O)[C@H](CCC(=O)[*:2])N[*:1]; AEEA = NCCOCCOCC(=O)O

Biological target: T1, Human CRF2 receptor (Homo sapiens, UniProt Q13324)
T1 construct: host or cells: CHO-K1 (membrane preparation)
T1 sequence (Q13324 1-411): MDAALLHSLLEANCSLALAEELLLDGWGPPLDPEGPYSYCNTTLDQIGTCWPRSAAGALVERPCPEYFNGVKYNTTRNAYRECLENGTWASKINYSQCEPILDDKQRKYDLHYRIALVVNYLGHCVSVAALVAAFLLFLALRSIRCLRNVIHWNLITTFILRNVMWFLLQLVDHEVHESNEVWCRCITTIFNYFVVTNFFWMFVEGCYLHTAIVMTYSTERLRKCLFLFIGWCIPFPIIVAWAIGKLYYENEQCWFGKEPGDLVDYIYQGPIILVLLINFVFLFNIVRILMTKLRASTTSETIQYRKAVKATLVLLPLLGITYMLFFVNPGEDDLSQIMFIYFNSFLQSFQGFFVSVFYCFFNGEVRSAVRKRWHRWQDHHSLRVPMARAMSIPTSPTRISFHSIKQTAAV
Test: CRF2 receptor binding, scintillation proximity assay (SPA)
Conditions: displacement of [125I]-Sauvagine, CHO-K1 cell membranes
Protocol: The purpose of this example was to test the in vitro binding of the compounds of the invention to receptor subtypes CRF1 and CRF2. The in vitro binding of the compounds was determined in a scintillation proximity assay (SPA) as described below. The native, human Ucn1 and Ucn2 peptides are included as references. Scintillation Proximity Assay: […] Both cell lines were cultured at 37° C. in a humidified atmosphere with 5% CO2. […] Membranes were prepared by the following protocol: cultured cells were washed twice with cold Dulbecco’s phosphate buffered saline and detached using TrypLE™ (ThermoFisher) and transferred to tubes and centrifuged for 5 minutes at 1000 g at +4° C. Pellets were resuspended in ice cold homogenization buffer (20 mM Hepes pH 7.1, 5 mM MgCl2, 1 mg/ml Bacitracin with 2 complete EDTA-free protease inhibitor cocktail tablets/50 ml (Roche)) and then homogenized for 30 seconds using a Ultra-Turrax T25 tissue homogenizer (IKA) at medium speed. The homogenate was centrifuged at 35,000 g for 15 minutes at +4° C. using an ultracentrifuge, and the supernatant was discarded, and fresh homogenization buffer was added. Homogenization of the pellet was repeated a total of three times. The final pellet was resuspended in a few millilitres of homogenization buffer and protein concentration was determined using the Bradford method. The membrane preparation was transferred to cryotubes, and the aliquots were stored at -80° C. Each membrane preparation was subsequently titrated to give an appropriate window in the assay. Test procedure: […] Plates were sealed and incubated at 25° C. for 2 hours in a plate shaker set at 400 rpm and thereafter centrifuged at 1500 rpm for 10 minutes. SPA plates were let to stand at room temperature for about 16 hours prior to reading on microplate scintillation counter. Displacement of radioligand was measured as reduction in luminescence, and IC50 values were calculated by nonlinear regression analysis of four parameter sigmoidal dose-response curves.

Row | SMILES | IC50 [nM]
1 | CC[C@H](C)[C@H](NC(=O)[C@H](CCC(=O)O)NC(=O)[C@H](C)NC(=O)[C@H](CC(N)=O)NC(=O)[C@@H](NC(=O)[C@@H](NC(=O)[C@H](C)NC(=O)[C@H](CCC(N)=O)NC(=O)[C@H](CCC(=O)O)NC(=O)[C@H](CCCNC(=N)N)NC(=O)[C@H](C)NC(=O)[C@H](C)NC(=O)[C@H](CCCNC(=N)N)NC(=O)[C@H](C)NC(=O)[C@H](CCCNC(=N)N)NC(=O)[C@H](C)NC(=O)[C@H](CCC(N)=O)NC(=O)[C@H](CCC(=O)O)NC(=O)[C@H](CC(C)C)NC(=O)[C@H](CC(C)C)NC(=O)[C@@H](NC(=O)[C@H](CCC(N)=O)NC(=O)[C@H](CC(C)C)NC(=O)[C@H](CC(C)C)NC(=O)CNC(=O)[C@@H](NC(=O)[C@@H]1CCCN1C(=O)[C@@H](NC(=O)[C@H](CC(=O)O)NC(=O)[C@H](CC(C)C)NC(=O)[C@H](CO)NC(=O)[C@H](CC(C)C)NC(=O)[C@@H](NC(=O)[C@@H](NC(=O)[C@@H](N)CCCCNC(=O)COCCOCCNC(=O)COCCOCCNC(=O)CC[C@H](NC(=O)CC[C@H](NC(=O)CC[C@H](NC(=O)CCCCCCCCCCCCCCCCCCC(=O)O)C(=O)O)C(=O)O)C(=O)O)[C@@H](C)CC)C(C)C)C(C)C)[C@@H](C)CC)[C@@H](C)CC)[C@@H](C)O)[C@@H](C)O)C(=O)N[C@@H](CC(C)C)C(=O)N[C@@H](C)C(=O)N[C@@H](CCC(=O)O)C(=O)N[C@H](C(N)=O)C(C)C [Compound 3] (H-K([AEEA-AEEA-γGlu-γGlu-γGlu-C20 diacid])IVLSLDVPIGLLQILLEQARARAAREQATTNAEILAEV-NH2) | 1.14
2 | CC[C@H](C)[C@H](NC(=O)[C@H](CCC(=O)O)NC(=O)[C@H](C)NC(=O)[C@H](CC(N)=O)NC(=O)[C@@H](NC(=O)[C@@H](NC(=O)[C@H](C)NC(=O)[C@H](CCC(N)=O)NC(=O)[C@H](CCC(=O)O)NC(=O)[C@H](CCCNC(=N)N)NC(=O)[C@H](C)NC(=O)[C@H](C)NC(=O)[C@H](CCCNC(=N)N)NC(=O)[C@H](C)NC(=O)[C@H](CCCNC(=N)N)NC(=O)[C@H](C)NC(=O)[C@H](CCC(N)=O)NC(=O)[C@H](CCC(=O)O)NC(=O)[C@H](CC(C)C)NC(=O)[C@H](CC(C)C)NC(=O)[C@@H](NC(=O)[C@H](CCC(N)=O)NC(=O)[C@H](CC(C)C)NC(=O)[C@H](CC(C)C)NC(=O)CNC(=O)[C@@H](NC(=O)[C@@H]1CCCN1C(=O)[C@@H](NC(=O)[C@H](CC(=O)O)NC(=O)[C@H](CC(C)C)NC(=O)[C@H](CO)NC(=O)[C@H](CC(C)C)NC(=O)[C@@H](NC(=O)[C@@H](NC(=O)[C@@H](N)CCCCNC(=O)COCCOCCNC(=O)COCCOCCNC(=O)CC[C@H](NC(=O)CC[C@H](NC(=O)CC[C@H](NC(=O)CCCCCCCCCCCCCCCCCCC(=O)O)C(=O)O)C(=O)O)C(=O)O)[C@@H](C)CC)C(C)C)C(C)C)[C@@H](C)CC)[C@@H](C)CC)[C@@H](C)O)[C@@H](C)O)C(=O)N[C@@H](CC(C)C)C(=O)N[C@@H](CCC(=O)O)C(=O)N[C@@H](CCCNC(=N)N)C(=O)N[C@H](C(N)=O)C(C)C [Compound 4] (H-K([AEEA-AEEA-γGlu-γGlu-γGlu-C20 diacid])IVLSLDVPIGLLQILLEQARARAAREQATTNAEILERV-NH2) | 1.47
